ChEMBL document CHEMBL1201862, “PubChem BioAssay data set” (2004)
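Test compounds were applied to cells in 96-well plates for 48 hours at 5 doses. GI50 marks 50% less growth.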 Active and inactive are the calls of the source. No stated cut-off is given here; in the data, active = GI50 up to about 1.1 µM and inactive = higher.

Assays:
Assay in all cases: NCI tumour cell line growth inhibition, 48 h
TK-10 = test system: TK-10
NCI-H460 = test system: NCI-H460
IGROV-1 = test system: IGROV-1
SK-MEL-2 = test system: SK-MEL-2
RPMI-8226 = test system: RPMI-8226
HCT-116 = test system: HCT-116
UO-31 = test system: UO-31
OVCAR-5 = test system: OVCAR-5
OVCAR-4 = test system: OVCAR-4
SNB-75 = test system: SNB-75
EKVX = test system: EKVX
A549 = test system: A549
SK-MEL-28 = test system: SK-MEL-28
NCI-H522 = test system: NCI-H522
SNB-19 = test system: SNB-19

Measured: GI50

CCOC(=O)c1cccc(=O)c(C(=O)OCC)c1
inactive: TK-10 > 100 µM | NCI-H460 80 µM | IGROV-1 74 µM | SK-MEL-2 47 µM | RPMI-8226 29.3 µM | HCT-116 28.4 µM | UO-31 29.4 µM | OVCAR-5 > 100 µM | OVCAR-4 48.1 µM | SNB-75 56.9 µM | EKVX > 100 µM | A549 46.9 µM | SK-MEL-28 38.6 µM

COc1ccc(-c2oc(/C=N/NC(N)=S)c([N+](=O)[O-])c2-c2ccc(OC)c(OC)c2)cc1OC
inactive: TK-10 34 µM | IGROV-1 28.3 µM | SK-MEL-2 15.3 µM | RPMI-8226 17 µM | HCT-116 19.2 µM | OVCAR-5 48.3 µM | OVCAR-4 21.7 µM | SNB-75 18 µM | EKVX 22.8 µM | A549 35.6 µM | NCI-H522 23.6 µM | SK-MEL-28 23.9 µM | SNB-19 36.1 µM

COc1cc(C(=O)C/C(CCCC(=O)Nc2ccccc2[N+](=O)[O-])=N/NC(=O)c2cc3ccccc3cc2O)ccc1O
inactive: TK-10 52.5 µM | NCI-H460 40.6 µM | IGROV-1 34.4 µM | SK-MEL-2 > 42.7 µM | RPMI-8226 > 46.9 µM | HCT-116 34.4 µM | UO-31 13.9 µM | OVCAR-5 46.3 µM | OVCAR-4 38.3 µM | SNB-75 > 91.2 µM | EKVX 16.5 µM | A549 54.5 µM | NCI-H522 36.6 µM | SK-MEL-28 58.2 µM | SNB-19 > 80.2 µM

O=S1(=O)[C@H](c2ccccc2)c2c(-c3ccccc3)sc(-c3ccccc3)c2[C@@H]1c1ccccc1
inactive: TK-10 > 100 µM | NCI-H460 > 100 µM | IGROV-1 > 100 µM | SK-MEL-2 > 100 µM | RPMI-8226 > 100 µM | UO-31 > 100 µM | OVCAR-5 3.81 µM | OVCAR-4 48.1 µM | SNB-75 26.1 µM | EKVX > 100 µM | A549 > 100 µM | NCI-H522 13 µM | SK-MEL-28 > 100 µM | SNB-19 > 100 µM

CCOC(=O)C(=O)Nc1c(C)cccc1C(C)(C)C
inactive: TK-10 > 100 µM | NCI-H460 > 100 µM | IGROV-1 > 100 µM | SK-MEL-2 > 100 µM | RPMI-8226 > 100 µM | HCT-116 > 100 µM | UO-31 > 100 µM | OVCAR-5 > 100 µM | OVCAR-4 73.3 µM | SNB-75 49.1 µM | EKVX > 100 µM | NCI-H522 > 100 µM | SK-MEL-28 > 100 µM | SNB-19 > 100 µM

O=C(c1ccc(Cl)cc1)c1ccc(OCCSCCCCCCCCCCSCCOc2ccc(C(=O)c3ccc(Cl)cc3)cc2)cc1
inactive: TK-10 > 100 µM | NCI-H460 > 100 µM | IGROV-1 > 100 µM | SK-MEL-2 > 100 µM | RPMI-8226 > 100 µM | UO-31 > 100 µM | OVCAR-5 > 100 µM | SNB-75 > 100 µM | EKVX > 100 µM | A549 > 100 µM | NCI-H522 > 100 µM | SK-MEL-28 > 100 µM | SNB-19 > 100 µM

COc1cc(C(=O)C/C(CCC(=O)Nc2ccc(Cl)cc2C)=N/NC(=O)C(N)=O)ccc1O
inactive: TK-10 > 100 µM | NCI-H460 > 100 µM | IGROV-1 > 100 µM | SK-MEL-2 > 100 µM | RPMI-8226 > 100 µM | HCT-116 > 100 µM | UO-31 43.1 µM | OVCAR-5 > 100 µM | OVCAR-4 > 100 µM | EKVX > 100 µM | A549 > 100 µM | NCI-H522 > 100 µM | SNB-19 > 100 µM
